The record followed here is ChEMBL document CHEMBL1759893, “1,4-Diazepane compounds as potent and selective CB2 agonists: optimization of metabolic stability” (Bioorg Med Chem Lett, 2011).

In brackets after ≈: the same amount, converted by molar mass.

Data set [1] is described as follows: Aqueous solubility of the compound at pH 7.4. The conditions noted are these: buffer. The data set is classed as physicochemical.
For a further data set, the species on record is Rattus norvegicus. The data set can be described thus: Hepatic blood flow in rat. The data set is classed as ADME, organism-based, Liver.
The species named for another data set is Homo sapiens. As to the kind of experiment: Hepatic blood flow in human. Format: ADME, organism-based, Liver.
The nature of data set [2]: Volume of distribution at steady state in Wistar rat at 1 umol/kg, iv. The data set is classed as ADME, organism-based, Wister. The note with it: in vivo, read-out: Vdss.
The nature of data set [3]: Oral bioavailability in Wistar rat at 10 umol/kg. The data set is classed as ADME, organism-based, Wister. The conditions noted are these: in vivo.
Data set [4] can be described thus: AUC (0 to infinity) in Wistar rat at 10 umol/kg, po. The note with it: plasma. The data set is classed as ADME, organism-based, Wister. More on the design: dose 10 umol/kg, route oral, time infinity.
Data set [5] is described as follows: Cmax in Wistar rat at 10 umol/kg, po. The data set is classed as ADME, organism-based, Wister. Details: dose 10 umol/kg, route oral. The conditions noted are these: in vivo.

As to `CCCCc1ccc(NC(=O)N2CCCN(C(=O)CCC3CCCC3)CC2)cc1`, in data set [1], the solubility (usually the dissolved amount per volume that the medium holds) came out at 3 µg/mL (≈ 7.51 µM).
In the case of `CC(C)(C)c1cc(NC(=O)N2CCCN(C(=O)C3CCOCC3)CC2)no1`, the QH in the data set filed under Rattus norvegicus is reported as 35%; in the data set listed under Homo sapiens it was < 24%. In addition, the solubility in data set [1] was > 37 µg/mL. Moreover, in data set [2], the Vd came to 0.87 L/kg. Further, in data set [3], the bioavailability – broadly, dose-corrected exposure relative to a reference, in per cent – is 28%. The AUC(0-inf) (as a rule, the area under the concentration-time curve extrapolated to infinity) in data set [4] was 1.38 µM·h. In data set [5], the Cmax (in general, the maximum level reached in the sampled fluid or tissue) amounted to 1760 ng/mL.
With `CC(C)(C)c1cc(NC(=O)N2CCCN(C(=O)C3CCOCC3)CC2)on1`, the QH in the data set filed under Rattus norvegicus was < 23%; in the data set filed under Homo sapiens, < 24%. Moreover, in data set [1], the solubility was > 37 µg/mL.
Take `CC(C)(C)c1cc(NC(=O)N2CCCN(C(=O)CN3CCS(=O)(=O)CC3)CC2)no1`: the results for the QH in the data set listed under Rattus norvegicus and in the data set listed under Homo sapiens were 27% and 50%, respectively. Also, the solubility in data set [1] is > 96 µg/mL.
For `CC(C)(C)c1cc(NC(=O)N2CCCN(C(=O)N3CCS(=O)(=O)CC3)CC2)no1` the same measures were 42%, < 24% and 18 µg/mL (≈ 42.1 µM).
